{
  "source": "patent US20100278687A1",
  "about": "“R[…] GYPSUM BOARD USING GASEOUS CHLORINE DIOXIDE” (SABRE INTELLECTUAL PROPERTY HOLDINGS COMPANY, LLC., priority 2009, published 2010)",
  "key": {"[1]": {"assay": "Olfactory observation of reduced-sulfur odors before and after treatment", "settings": "Sabre personnel and independent observers; faint swimming pool like scent remained", "text": "Subjective Odor Elimination—Reduced-sulfur compounds odors are extremely noxious and can be detected by the human olfactory (i.e. odor) sense at levels which are at or below the detection limits of sophisticated analytical instruments. As such, the olfactory senses of both Sabre personnel and independent observers were employed both pre- and post-treatment to gauge the effectiveness of ClO2 in ridding the test structure of reduced-sulfur compound odors.\nOdor levels emanating from within the structure were observed both pre- and post-treatment for the “putrid” characteristic commonly associated with reduced-sulfur gases such as hydrogen sulfide, carbonyl sulfide and carbon disulfide that have been definitively shown by an FDOH study as being released from Chinese wallboard."}, "SRBs and sulfur bacteria": {"tested_on": "SRBs and sulfur bacteria", "assay": "Chlorine dioxide fumigation of Chinese wallboard, SRB kill", "type": "cell-based", "settings": "65% RH and 65° F., enclosed structure", "protocol": "Two square ([…]) samples of ⅝ inch Chinese wall board are collected from the structure that reported odor issues from different areas of the structure. […] The samples are split into four 25 cm×25 cm squares with the exposed ends of the sheetrock taped and painted with the same paint used within the structure. Two squares from each sample are placed into a chlorine dioxide fumigation chamber and fumigated with chlorine dioxide to a CT value of 9000 ppmv hours at 65% RH and 65° F. The other two squares from each sample are held in sealed bags as test blanks.\nUpon completion of the test, each of the samples can be sampled as follows: Each core sample is homogenized in 10 ml of an anaerobic SRB broth, and 1 ml of the broth is transferred to 10 ml of broth in an anaerobic container and diluted serially out to a 104th dilution. The broth bottles are incubated at 25° C. for 21 days. Each day growth is recorded, and a lab blank negative control is performed on the initial broth."}, "[2]": {"settings": "after fumigation, side-by-side with untreated carpet", "procedure": "Bleaching potential of ClO2 was assessed by observation of carpet color and brightness throughout the structure both pre- and post-treatment. A piece of carpeting was also removed from a closet within the structure prior to fumigation and used for direct visual comparison with treated carpet following completion of the process."}, "[3]": {"tested_on": "Bacillus atrophaeus spores", "assay": "BI spore strip viability test, strips inside wall cavities during ClO2 fumigation", "type": "cell-based", "settings": "Bacillus atrophaeus spore strips in wall cavities; incubated seven days; both positive controls grew", "text": "BI Spore Strips—BI spore strips, each containing an approximate 2.5×103 titer of B. atrophaeus spores, were placed within wall cavities of the structure at the same 20 locations where wallboard samples had been collected, prior to insertion of the 2-inch expansion plugs. The B. atrophaeus species was selected due to its historical use as a biological indicator for ClO2 fumigations\nSpore strips are thin cellulose pads that have been impregnated with a defined titer of bacterial spores. Each spore strip is encased in a Tyvek® pouch to allow for effective penetration of fumigant gas yet protect the strip from contamination by external sources. The BIs were obtained from SGM Biotech Inc., 10 Evergreen Drive, Suite E, Bozeman, Mont. (Lot #ACD-113e). All BIs were supplied from the same product batch in order to ensure uniformity in spore titer. Relevant production QA/QC data for the specific lot number have been kept on file for future reference.\nAll BIs were retrieved promptly following fumigation and sent to Sabre's Slingerlands, N.Y. laboratory facility for analysis. Each spore strip was aseptically placed in a growth media tube containing 15 milliliters of trypticase soy broth (BD Diagnostics product #221823, Lot # 7337460) and incubated at 37 degrees Centigrade. Spore strips were evaluated daily for the presence or absence of indicator organism growth for a total of seven days. […]"}, "[4]": {"settings": "after fumigation, visual", "procedure": "The corrosivity potential of ClO2 on metals and bleaching potential of ClO2 on household carpeting were evaluated through pre- and post treatment visual observations made throughout the structure.\nCorrosivity potential was assessed by observation of typical metal items present within the structure (e.g. screws, door hinges, HVAC system components, etc.). […] Each piece of copper was “scuffed” clean prior to fumigation to ensure that any changes in the metal due to ClO2 exposure would be readily recognizable. Photographs were taken of the copper pipe pieces before and after treatment to document visual observations made."}, "[5]": {"tested_on": "sulfate-reducing bacteria (SRBs)", "assay": "SRB growth test (presence/absence) on unpainted wallboard paper before and after ClO2 fumigation of a house", "type": "cell-based", "settings": "20 wall and ceiling cavity locations, 12 of 20 positive before treatment; 13 hours, CT 5336-9727 ppmv-hours, about 45-52% RH", "protocol": "SRBs—The efficacy of ClO2 gas in eliminating SRBs from Chinese wallboard material was evaluated by collecting samples of unpainted wallboard paper located inside wall cavities of the home prior to, and immediately after, ClO2 exposure. Unpainted wallboard paper from wall cavities was chosen for SRB testing because preliminary laboratory work done at Sabre's Slingerlands, N.Y. laboratory facility had shown SRBs to be concentrated in this media.\nPre-treatment wallboard paper samples were collected by drilling a two-inch circular core at selected wall and ceiling locations. To avoid damaging vapor barriers present within the home, samples were not collected from any bathroom or laundry room locations. Sample locations were selected to be representative wall cavities within the structure most likely to contain conditions conducive to SRB growth. In total, 20 sample locations were selected. Nine were wall cores and eleven were ceiling cores.\nThe wallboard holes created through SRB sampling were each sealed using a two-inch rubber expansion plug in order to ensure that ClO2 gas would not penetrate into wall cavities as a consequence of sampling activities.\nPost-treatment wallboard paper samples were collected by drilling an identical two-inch circular core approximately one inch away from each of the 20 pre-treatment sample locations. […]"}},
  "data": [
    {"compound": "[O][Cl+][O-]", "note": "[ClO2, chlorine dioxide]", "values": [
      {"measurement": "Reduced-sulfur gas odors after fumigation", "setting": "[1]", "result": "completely eliminated"},
      {"measurement": "CT of fumigation that eliminates growth of SRBs and sulfur bacteria and oxidizes reactive sulfides", "setting": "SRBs and sulfur bacteria", "result": "about 9000 ppmv hours"},
      {"measurement": "Bleaching effect on carpet color and brightness", "setting": "[2]", "result": "no meaningful bleaching effect"},
      {"measurement": "Surrogate test organism growth on BI spore strips after ClO2 treatment", "setting": "[3]", "result": "negative for surrogate test organism growth"},
      {"measurement": "Corrosive effect on common metal items in the structure", "setting": "[4]", "result": "no corrosive effect was visible"},
      {"measurement": "Changes in scuffed copper pipe pieces", "setting": "[4]; some pieces had a gold-like tint", "result": "no changes were observed"},
      {"measurement": "SRB growth after ClO2 treatment", "setting": "[5]", "result": "negative for SRB growth"}
    ]}
  ]
}
